Experiment [1] addresses T1, Macrophage metalloelastase (Homo sapiens, UniProt P39900). Nature of the experiment: Inhibition of autoactivated human pro-MMP12 after 4 hrs by fluorimetry.
The target in experiment [2] is 72 kDa type IV collagenase (Homo sapiens, UniProt P08253). Nature of the experiment: Inhibition of para-aminophenylmercuric acetate-activated human recombinant pro-MMP2 catalytic domain after 4 hrs by fluorimetry.
The target in the next experiment is T2, Interstitial collagenase (Homo sapiens, UniProt P03956).
T2 sequence (P03956 whole entry): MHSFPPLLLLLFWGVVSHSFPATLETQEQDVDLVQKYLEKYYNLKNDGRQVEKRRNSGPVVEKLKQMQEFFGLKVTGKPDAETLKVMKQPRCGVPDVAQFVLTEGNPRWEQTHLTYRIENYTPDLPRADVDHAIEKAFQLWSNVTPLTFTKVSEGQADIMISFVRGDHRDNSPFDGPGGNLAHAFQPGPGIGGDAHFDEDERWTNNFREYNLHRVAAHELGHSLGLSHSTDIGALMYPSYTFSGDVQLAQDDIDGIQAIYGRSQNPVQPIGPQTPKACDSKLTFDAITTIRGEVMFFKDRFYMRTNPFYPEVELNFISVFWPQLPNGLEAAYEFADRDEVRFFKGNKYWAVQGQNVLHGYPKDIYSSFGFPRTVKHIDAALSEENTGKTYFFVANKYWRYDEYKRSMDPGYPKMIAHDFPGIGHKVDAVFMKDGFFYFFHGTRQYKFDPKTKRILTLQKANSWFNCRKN
Nature of the experiment: Inhibition of para-aminophenylmercuric acetate-activated human pro-MMP1 after 4 hrs by fluorimetry.

The target of another experiment is Collagenase 3 (Homo sapiens, UniProt P45452). Nature of the experiment: Inhibition of para-aminophenylmercuric acetate-activated human pro-MMP13 after 4 hrs by fluorimetry.
The target of experiment [3] is Matrix metalloproteinase-16 (Homo sapiens, UniProt P51512). Nature of the experiment: Inhibition of human recombinant pro-MMP16 catalytic domain after 4 hrs by fluorimetry.
For experiment [4], the target named is Matrix metalloproteinase-9 (Homo sapiens, UniProt P14780). As to the kind of experiment: Inhibition of para-aminophenylmercuric acetate-activated human recombinant pro-MMP9 catalytic domain after 4 hrs by fluorimetry.
For a further experiment, the target named is Neutrophil collagenase (Homo sapiens, UniProt P22894). Nature of the experiment: Inhibition of para-aminophenylmercuric acetate-activated human pro-MMP8 after 4 hrs by fluorimetry.
A further experiment addresses Stromelysin-1 (Homo sapiens, UniProt P08254). Nature of the experiment: Inhibition of trypsin activated human pro-MMP3 after 4 hrs by fluorimetry.
For experiment [5], the target named is Matrix metalloproteinase-14 (Homo sapiens, UniProt P50281). As to the kind of experiment: Inhibition of human recombinant pro-MMP14 catalytic domain after 4 hrs by fluorimetry.
Experiment [6] concerns the target T1, Macrophage metalloelastase. As to the kind of experiment: Inhibition of autoactivated human pro-MMP12 after 30 mins preincubation by fluorimetry.
Experiment [7] concerns the target T1, Macrophage metalloelastase. As to the kind of experiment: Inhibition of autoactivated human pro-MMP12 after 1 hr preincubation by fluorimetry.

Structures are written as SMILES. pIC50: −log10 of the molar value. Where only a bound is given, the exact number is not on record here.

Stromelysin-1, sequence (P08254 whole entry, the tested form may be a part): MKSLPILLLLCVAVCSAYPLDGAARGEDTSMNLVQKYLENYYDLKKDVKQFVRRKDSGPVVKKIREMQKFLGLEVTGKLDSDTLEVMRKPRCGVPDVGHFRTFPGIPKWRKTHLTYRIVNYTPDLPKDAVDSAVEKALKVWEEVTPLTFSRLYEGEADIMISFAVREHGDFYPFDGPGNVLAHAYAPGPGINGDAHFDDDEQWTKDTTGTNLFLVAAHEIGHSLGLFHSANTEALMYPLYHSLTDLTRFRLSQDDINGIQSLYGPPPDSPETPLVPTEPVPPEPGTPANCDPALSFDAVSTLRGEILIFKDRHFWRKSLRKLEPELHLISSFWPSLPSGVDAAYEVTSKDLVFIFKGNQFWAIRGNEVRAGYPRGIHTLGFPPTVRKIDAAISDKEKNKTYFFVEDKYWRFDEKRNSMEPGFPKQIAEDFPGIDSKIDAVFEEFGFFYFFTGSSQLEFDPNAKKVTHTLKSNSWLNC
Matrix metalloproteinase-9, sequence (P14780 whole entry, the tested form may be a part): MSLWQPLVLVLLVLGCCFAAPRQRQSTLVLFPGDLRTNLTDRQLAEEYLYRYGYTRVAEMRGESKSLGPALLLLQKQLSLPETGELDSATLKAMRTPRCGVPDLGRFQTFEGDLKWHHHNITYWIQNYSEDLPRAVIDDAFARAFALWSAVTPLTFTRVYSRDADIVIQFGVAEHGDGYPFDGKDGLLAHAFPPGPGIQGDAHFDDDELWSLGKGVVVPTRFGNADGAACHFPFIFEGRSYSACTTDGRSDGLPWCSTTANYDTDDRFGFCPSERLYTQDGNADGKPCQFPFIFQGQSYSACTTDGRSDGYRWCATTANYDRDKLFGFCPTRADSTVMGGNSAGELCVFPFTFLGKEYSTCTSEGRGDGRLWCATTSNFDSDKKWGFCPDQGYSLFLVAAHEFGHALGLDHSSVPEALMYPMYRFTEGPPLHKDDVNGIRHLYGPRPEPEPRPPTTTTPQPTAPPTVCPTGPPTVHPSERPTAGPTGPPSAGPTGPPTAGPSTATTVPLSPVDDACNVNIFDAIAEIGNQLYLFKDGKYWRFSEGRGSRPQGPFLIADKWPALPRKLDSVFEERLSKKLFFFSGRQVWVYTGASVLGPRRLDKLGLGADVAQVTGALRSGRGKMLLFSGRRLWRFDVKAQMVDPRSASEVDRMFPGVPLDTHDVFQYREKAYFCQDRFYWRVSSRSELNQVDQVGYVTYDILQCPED
T1 sequence (P39900 whole entry, the tested form may be a part): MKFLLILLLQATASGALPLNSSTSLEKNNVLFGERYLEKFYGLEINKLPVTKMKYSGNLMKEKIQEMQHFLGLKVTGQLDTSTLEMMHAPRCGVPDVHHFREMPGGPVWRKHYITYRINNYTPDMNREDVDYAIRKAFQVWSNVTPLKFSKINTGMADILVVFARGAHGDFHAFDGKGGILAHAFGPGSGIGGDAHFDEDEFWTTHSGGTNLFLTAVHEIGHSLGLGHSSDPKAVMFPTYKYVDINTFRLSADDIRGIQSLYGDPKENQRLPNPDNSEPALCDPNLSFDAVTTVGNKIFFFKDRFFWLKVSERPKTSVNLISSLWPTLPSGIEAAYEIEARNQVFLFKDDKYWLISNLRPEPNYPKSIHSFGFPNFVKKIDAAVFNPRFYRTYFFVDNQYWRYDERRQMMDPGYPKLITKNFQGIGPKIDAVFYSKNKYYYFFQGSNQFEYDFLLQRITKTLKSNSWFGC
Matrix metalloproteinase-16, sequence (P51512 whole entry, the tested form may be a part): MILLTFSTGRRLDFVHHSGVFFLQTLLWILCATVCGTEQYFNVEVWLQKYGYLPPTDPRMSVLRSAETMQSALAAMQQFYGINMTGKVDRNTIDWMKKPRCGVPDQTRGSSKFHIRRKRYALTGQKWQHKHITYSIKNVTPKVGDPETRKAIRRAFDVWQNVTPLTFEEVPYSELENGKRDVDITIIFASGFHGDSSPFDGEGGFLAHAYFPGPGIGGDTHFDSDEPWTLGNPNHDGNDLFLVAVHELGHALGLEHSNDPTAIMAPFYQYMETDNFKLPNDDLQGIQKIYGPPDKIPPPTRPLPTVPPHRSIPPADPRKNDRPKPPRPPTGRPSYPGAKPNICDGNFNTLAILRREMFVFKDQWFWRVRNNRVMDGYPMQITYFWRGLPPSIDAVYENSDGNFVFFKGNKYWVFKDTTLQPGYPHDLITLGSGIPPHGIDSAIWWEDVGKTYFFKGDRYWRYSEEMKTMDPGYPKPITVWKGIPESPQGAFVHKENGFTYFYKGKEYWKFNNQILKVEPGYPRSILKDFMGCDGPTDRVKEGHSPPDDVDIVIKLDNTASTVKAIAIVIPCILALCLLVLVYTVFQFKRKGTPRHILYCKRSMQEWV
Neutrophil collagenase, sequence (P22894 whole entry): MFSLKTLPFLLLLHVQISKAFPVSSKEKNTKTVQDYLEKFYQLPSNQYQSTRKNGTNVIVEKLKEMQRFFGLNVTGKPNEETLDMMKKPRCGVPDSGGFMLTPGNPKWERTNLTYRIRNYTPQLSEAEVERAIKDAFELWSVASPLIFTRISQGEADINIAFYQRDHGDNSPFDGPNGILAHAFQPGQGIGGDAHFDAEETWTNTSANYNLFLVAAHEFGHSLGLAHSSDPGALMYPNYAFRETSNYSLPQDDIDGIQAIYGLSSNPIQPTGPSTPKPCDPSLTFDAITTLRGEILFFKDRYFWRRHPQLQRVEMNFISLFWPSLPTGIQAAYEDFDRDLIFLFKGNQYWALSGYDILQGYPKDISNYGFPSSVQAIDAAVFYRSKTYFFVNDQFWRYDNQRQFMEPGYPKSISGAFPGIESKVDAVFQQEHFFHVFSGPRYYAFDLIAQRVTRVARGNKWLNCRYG
72 kDa type IV collagenase, sequence (P08253 whole entry, the tested form may be a part): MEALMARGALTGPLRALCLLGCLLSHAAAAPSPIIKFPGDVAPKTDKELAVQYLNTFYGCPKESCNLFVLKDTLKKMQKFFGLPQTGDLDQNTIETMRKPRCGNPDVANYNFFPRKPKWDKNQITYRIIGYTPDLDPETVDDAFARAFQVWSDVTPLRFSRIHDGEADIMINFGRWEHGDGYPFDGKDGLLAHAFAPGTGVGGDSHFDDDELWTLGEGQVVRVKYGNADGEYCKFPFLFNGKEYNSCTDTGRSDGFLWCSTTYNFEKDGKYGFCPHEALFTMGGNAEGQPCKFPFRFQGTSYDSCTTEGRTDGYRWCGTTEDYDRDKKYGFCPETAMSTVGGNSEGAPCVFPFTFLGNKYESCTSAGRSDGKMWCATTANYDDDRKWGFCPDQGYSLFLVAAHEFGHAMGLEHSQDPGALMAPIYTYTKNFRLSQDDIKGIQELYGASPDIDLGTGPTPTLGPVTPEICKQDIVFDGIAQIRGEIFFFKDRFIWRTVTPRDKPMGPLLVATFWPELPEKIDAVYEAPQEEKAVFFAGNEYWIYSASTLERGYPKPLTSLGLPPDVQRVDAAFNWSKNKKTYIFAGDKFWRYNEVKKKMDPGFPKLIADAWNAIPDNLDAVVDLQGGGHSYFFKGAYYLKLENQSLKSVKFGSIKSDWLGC

The term pIC50 denotes −log10 of the IC50, conventionally taken in molar units. On to `CC(C)ON([C@@H](C(=O)NO)C(C)C)S(=O)(=O)c1ccc(-c2ccccc2)cc1`, for which the pIC50 in experiment [1] is 9.70; in [2], 9.10; against Interstitial collagenase it was 6.31; against Collagenase 3, 8.39; in experiment [3] it was 7.29.

Take `COc1ccc(S(=O)(=O)c2ccccc2C(=O)NO)cc1`: the pIC50 in [1] was 4.85; in experiment [4] it was 4.62; against Neutrophil collagenase it was 4.14; on Stromelysin-1, under 4.30; in experiment [2] it was 4.46; on Interstitial collagenase, under 4.00. Also, the pIC50 was 4.55 at Collagenase 3, 4.60 in experiment [5] and 4.51 in experiment [3].

`COc1ccc(S(=O)(=O)c2ccccc2CC(=O)NO)cc1`: the pIC50 was 7.49 in [1]; 7.01 in experiment [4]; 6.55 against Neutrophil collagenase; 6.14 at Stromelysin-1; 6.64 in experiment [2]; 5.39 on Interstitial collagenase. The pIC50 on Collagenase 3 was 7.08; in experiment [5], 6.70; in [3], 6.89.

As for `O=C(Cc1ccccc1S(=O)(=O)c1ccc(-c2ccccc2)cc1)NO`, the pIC50 in experiment [1] was 8.22; in [4], 6.51; on Neutrophil collagenase it was 6.43; at Stromelysin-1, 4.64; in experiment [2] it was 7.42; against Interstitial collagenase it was 4.54. Moreover, the pIC50 was 7.21 against Collagenase 3, 6.03 in experiment [5] and 6.66 in experiment [3].

For `COc1ccc(Oc2ccc(S(=O)(=O)c3ccccc3CC(=O)NO)cc2)cc1`, the pIC50 is 9.70 in experiment [1]; 9.10 in [4]; 8.29 on Neutrophil collagenase; 7.68 on Stromelysin-1; 8.46 in experiment [2]; 5.46 against Interstitial collagenase. The pIC50 is 8.39 against Collagenase 3; 7.48 in experiment [5]; 7.49 in [3]; 9.05 in [6]; 9.07 in [7].

As to `COc1ccc(Oc2ccc(S(=O)(=O)c3ccccc3CC(=O)O)cc2)cc1`, the pIC50 is 6.42 in experiment [1]; 6.38 in [4]; 5.92 at Neutrophil collagenase; under 5.00 at Stromelysin-1; 6.15 in experiment [2]; under 5.00 at Interstitial collagenase. Further, the pIC50 against Collagenase 3 was 6.03; in experiment [5], 5.09; in [3] it was 5.19.

Regarding `O=C(NO)c1ccccc1S(=O)(=O)c1ccc(Oc2ccccc2)cc1`, the pIC50 is 5.92 in experiment [1]; 6.16 in [4]; 6.21 on Neutrophil collagenase; 4.57 against Stromelysin-1; 5.92 in experiment [2]; under 5.00 against Interstitial collagenase. Moreover, the pIC50 at Collagenase 3 was 5.57; in experiment [5], 5.89; in [3], 5.89.

Consider `COc1ccc(-c2ccc(S(=O)(=O)c3ccccc3C(C)C(=O)NO)cc2)cc1` (racemic), for which the pIC50 in experiment [1] was 8.57; in experiment [4] it was 7.16; against Neutrophil collagenase, 7.27; at Stromelysin-1, 5.85; in experiment [2] it was 8.15; at Interstitial collagenase, under 5.00. The pIC50 on Collagenase 3 is 7.92; in experiment [5], 6.44; in experiment [3], 6.82.

`COc1ccc(-c2ccc(S(=O)(=O)c3ccccc3CC(=O)O)cc2)cc1`: the negative logarithm of the IC50 (pIC50) was 6.85 in experiment [1]; 6.14 in experiment [4]; 7.00 at Neutrophil collagenase; 5.12 against Stromelysin-1; 7.33 in experiment [2]; 5.36 at Interstitial collagenase. In addition, the negative-log IC50 (pIC50) against Collagenase 3 was 7.11; in experiment [5], 6.13; in experiment [3], 6.14; in [6], 6.77; in [7], 6.82.

`C[S+]([O-])c1ccc(Oc2ccc(S(=O)(=O)c3ccccc3C(=O)NO)cc2)cc1` (stereo not given): the pIC50 in experiment [1] was 5.24; in [4] it was 4.29; against Neutrophil collagenase it was 5.04; at Stromelysin-1 it was 4.22; in experiment [2] it was 5.00; against Interstitial collagenase it was under 3.70. Moreover, the pIC50 at Collagenase 3 was 4.70; in experiment [5] it was 3.92; in [3] it was 3.96.

With `COc1ccc(Oc2ccc(S(=O)(=O)c3ccccc3C(=O)NO)cc2)cc1`, the pIC50 was 6.04 in experiment [1]; 6.39 in [4]; 5.72 against Neutrophil collagenase; 4.66 against Stromelysin-1; 5.89 in experiment [2]; under 5.00 against Interstitial collagenase. The pIC50 at Collagenase 3 was 5.57; in [5], 5.40; in [3], 5.22.

For `CC(C)ON([C@@H](C(=O)O)C(C)C)S(=O)(=O)c1ccc(-c2ccccc2)cc1`, the pIC50 in [1] was 6.39; in experiment [4], 4.62; against Neutrophil collagenase, 5.70; at Stromelysin-1 it was 4.27; in experiment [2], 5.82; against Interstitial collagenase, under 4.00. Besides, the pIC50 was 5.10 at Collagenase 3, 5.00 in experiment [5] and 4.74 in [3].

In the case of `COc1ccc(-c2ccc(S(=O)(=O)c3ccccc3CC(=O)NO)cc2)cc1`, the pIC50 in [1] was 8.32; in experiment [4] it was 7.03; on Neutrophil collagenase it was 6.92; against Stromelysin-1 it was 5.80; in experiment [2], 8.01; at Interstitial collagenase, 5.08. Besides, the pIC50 at Collagenase 3 was 7.60; in [5], 6.15; in experiment [3], 6.89.

As for `O=C(O)Cc1ccccc1S(=O)(=O)c1ccc(-c2ccccc2)cc1`, the pIC50 was 5.82 in experiment [1]; 5.14 in [4]; 6.54 on Neutrophil collagenase; 4.13 on Stromelysin-1; 6.29 in experiment [2]; 4.64 against Interstitial collagenase. Besides, the pIC50 was 6.59 against Collagenase 3, 5.27 in [5] and 5.37 in [3].

Regarding `COc1ccc(S(=O)(=O)c2ccccc2CC(=O)O)cc1`, the pIC50 in [1] was 4.05; in [4], under 4.00; at Neutrophil collagenase, 4.13; on Stromelysin-1 it was under 4.00; in [2] it was 4.24; at Interstitial collagenase it was under 4.00. For the same compound, the values for the pIC50 (against Collagenase 3; in experiment [5]; in [3]) were 4.26, 4.11 and 4.03, respectively.

Turning to `O=C(NO)c1ccccc1S(=O)(=O)c1ccc(-c2ccccc2)cc1`, the pIC50 in experiment [1] is 6.23; in [4], 5.11; against Neutrophil collagenase it was 6.00; on Stromelysin-1, 4.35; in [2], 5.89; against Interstitial collagenase, 4.14. The pIC50 was 5.85 on Collagenase 3, 5.08 in experiment [5] and 5.29 in experiment [3].

For `CC(C(=O)O)c1ccccc1S(=O)(=O)c1ccc(-c2ccccc2)cc1` (racemic), the pIC50 in [1] is 5.72; in experiment [4], 4.70; at Neutrophil collagenase it was 5.72; on Stromelysin-1 it was under 4.00; in experiment [2] it was 5.62; at Interstitial collagenase, 4.29. For the same compound, the pIC50 against Collagenase 3 is 5.74; in [5], 4.74; in [3] it was 5.20.

As for `CC(C(=O)NO)c1ccccc1S(=O)(=O)c1ccc(-c2ccccc2)cc1` (racemic), the pIC50 in experiment [1] was 8.22; in experiment [4], 6.47; against Neutrophil collagenase, 6.41; on Stromelysin-1, 5.25; in experiment [2], 7.14; on Interstitial collagenase it was 4.92. Also, the pIC50 on Collagenase 3 is 7.13; in experiment [5], 6.07; in experiment [3], 6.33.

For the compound `COc1ccc(-c2ccc(S(=O)(=O)c3ccccc3C(C)C(=O)O)cc2)cc1` (racemic), the pIC50 in [1] was 6.51; in experiment [4] it was 5.52; at Neutrophil collagenase, 6.54; against Stromelysin-1 it was 5.10; in experiment [2], 6.72; against Interstitial collagenase it was under 5.00. Also, the figures for the pIC50 (on Collagenase 3; in experiment [5]; in experiment [3]) were 6.72, 5.68 and 5.96, respectively.

Regarding `COc1ccc(-c2ccc(S(=O)(=O)c3ccccc3C(=O)NO)cc2)cc1`, the pIC50 in [1] is 7.15; in experiment [4], 6.03; on Neutrophil collagenase, 7.06; against Stromelysin-1, 5.40; in experiment [2], 7.00; at Interstitial collagenase, 4.55. For the same compound, the values for the pIC50 (at Collagenase 3; in experiment [5]; in [3]) were 6.59, 5.89 and 5.92, respectively.

Values taken from ChEMBL document CHEMBL1154164, “Design, synthesis, biological evaluation, and NMR studies of a new series of arylsulfones as selective and potent matrix metalloproteinase-12 inhibitors” (J Med Chem, 2009).
